Test results from the NIST ThermoML archive (doi:10.1021/je400332j).

Key:
[1] = 101.33 kPa, Liquid; for viscosity: Concentric cylinders viscometry; for mass density: Vibrating tube method
[2] = xn = mol fraction of the nth substance listed; details: 101 kPa, Liquid; for viscosity: Concentric cylinders viscometry; for mass density: Vibrating tube method

CCn1cc[n+](C)c1.F[B-](F)(F)F [1-ethyl-3-methylimidazolium tetrafluoroborate]
[1]
Details | mass density [kg/m3] | viscosity [mPa·s]
293.15 K | 1283.9 | 45.47
298.15 K | 1280 | 37.46
303.15 K | 1276.2 | 31.29
308.15 K | 1272.4 | 26.45
313.15 K | 1268.6 | 22.61
318.15 K | 1264.9 | 19.51
323.15 K | 1261.2 | 17
328.15 K | 1257.4 | 14.92
333.15 K | 1253.8 | 13.2
338.15 K | 1250.1 | 11.76
343.15 K | 1246.5 | 10.54

CCn1cc[n+](C)c1.F[B-](F)(F)F [1-ethyl-3-methylimidazolium tetrafluoroborate] + CCCCCCn1cc[n+](C)c1.F[B-](F)(F)F
[2], x1 = 1
Details | mass density [kg/m3] | viscosity [mPa·s]
293.15 K | 1283.9 | 45.47
298.15 K | 1280 | 37.46
303.15 K | 1276.2 | 31.29
308.15 K | 1272.4 | 26.45
313.15 K | 1268.6 | 22.61
318.15 K | 1264.9 | 19.51
323.15 K | 1261.2 | 17
328.15 K | 1257.4 | 14.92
333.15 K | 1253.8 | 13.2
338.15 K | 1250.1 | 11.76
343.15 K | 1246.5 | 10.54

CCn1cc[n+](C)c1.F[B-](F)(F)F [1-ethyl-3-methylimidazolium tetrafluoroborate] + CCCn1cc[n+](C)c1.F[B-](F)(F)F
[2], x1 = 1
Details | mass density [kg/m3] | viscosity [mPa·s]
293.15 K | 1283.9 | 45.47
298.15 K | 1280 | 37.46
303.15 K | 1276.2 | 31.29
308.15 K | 1272.4 | 26.45
313.15 K | 1268.6 | 22.61
318.15 K | 1264.9 | 19.51
323.15 K | 1261.2 | 17
328.15 K | 1257.4 | 14.92
333.15 K | 1253.8 | 13.2
338.15 K | 1250.1 | 11.76
343.15 K | 1246.5 | 10.54

CCCCCCn1cc[n+](C)c1.F[B-](F)(F)F [1-hexyl-3-methylimidazolium tetrafluoroborate]
[1]
Details | mass density [kg/m3] | viscosity [mPa·s]
293.15 K | 1147.5 | 280.4
298.15 K | 1144.1 | 206.3
303.15 K | 1140.6 | 154.9
308.15 K | 1137.2 | 118.7
313.15 K | 1133.7 | 92.56
318.15 K | 1130.3 | 73.37
323.15 K | 1127 | 59.03
328.15 K | 1123.6 | 48.16
333.15 K | 1120.2 | 39.71
338.15 K | 1116.8 | 33.21
343.15 K | 1113.4 | 28.03

CCCCCCn1cc[n+](C)c1.F[B-](F)(F)F [1-hexyl-3-methylimidazolium tetrafluoroborate] + CCCn1cc[n+](C)c1.F[B-](F)(F)F
[2], x2 = 0
Details | mass density [kg/m3] | viscosity [mPa·s]
293.15 K | 1147.5 | 280.4
298.15 K | 1144.1 | 206.3
303.15 K | 1140.6 | 154.9
308.15 K | 1137.2 | 118.7
313.15 K | 1133.7 | 92.56
318.15 K | 1130.3 | 73.37
323.15 K | 1127 | 59.03
328.15 K | 1123.6 | 48.16
333.15 K | 1120.2 | 39.71
338.15 K | 1116.8 | 33.21
343.15 K | 1113.4 | 28.03

CCCn1cc[n+](C)c1.F[B-](F)(F)F [1-propyl-3-methylimidazolium tetrafluoroborate]
[1]
Details | mass density [kg/m3] | viscosity [mPa·s]
293.15 K | 1239.3 | 95.44
298.15 K | 1235.7 | 74.04
303.15 K | 1232 | 58.59
308.15 K | 1228.3 | 47.16
313.15 K | 1224.7 | 38.56
318.15 K | 1221 | 31.98
323.15 K | 1217.4 | 26.83
328.15 K | 1213.8 | 22.77
333.15 K | 1210.2 | 19.54
338.15 K | 1206.6 | 16.92
343.15 K | 1203 | 14.77
